Data as given in publication PMC6965684, “Characterization of binding, functional activity, and contractile responses of the selective 5‐HT1F receptor agonist lasmiditan” (British Journal of Pharmacology, 2019).
Structures can show the parent of a compound that is named as a salt. Where two headings read alike, the source gives them in different places.

Legend:
5-ht1E receptor = target: T1, 5-ht1E receptor (Homo sapiens, UniProt P28566); assay: cell-based; set-up: species or system CHO-K1; cAMP HTRF agonist assay, Gi coupled receptors, inhibition of stimulated cAMP; conditions: cAMP
T1 construct: gene HTR1E; full-length human recombinant receptor in CHO-K1 cells (Ogeda); crude membranes
Protocol: (§1) Concentration–response curves were performed in parallel with the agonists. […] After addition of the lysis buffer and 1‐hr incubation, cAMP concentrations were estimated according to the manufacturer specification with the HTRF kit (Cisbio International, Codelet, France). In brief, increasing concentrations of agonists were added to stably transfected cells in buffer in an Optiplate (PerkinElmer Life Sciences, Massachusetts, USA). The plates were incubated, and cells were then lysed by the addition of HTRF reagents (cAMP‐Cryptate and anti‐cAMP‐d2 reagents) and diluted in lysis buffer, followed by incubation at room temperature. […] Additionally, the reference values obtained were compared to historical values obtained from the same receptor and used to validate the experimental session. […] For the new assays developed in this study (i.e., 5‐ht1E receptor), the two independent pIC50 determined must be concordant with a 1 log unit interval for the assays to be validated.

5-HT1F receptor [1] = target: T2, 5-HT1F receptor (Homo sapiens, UniProt P30939); assay: cAMP HTRF, stably transfected CHO-K1 cells; type: cell-based
T2 construct: gene HTR1F; full-length human recombinant receptor in CHO-K1 cells (Ogeda)
T2 sequence (P30939 1-366): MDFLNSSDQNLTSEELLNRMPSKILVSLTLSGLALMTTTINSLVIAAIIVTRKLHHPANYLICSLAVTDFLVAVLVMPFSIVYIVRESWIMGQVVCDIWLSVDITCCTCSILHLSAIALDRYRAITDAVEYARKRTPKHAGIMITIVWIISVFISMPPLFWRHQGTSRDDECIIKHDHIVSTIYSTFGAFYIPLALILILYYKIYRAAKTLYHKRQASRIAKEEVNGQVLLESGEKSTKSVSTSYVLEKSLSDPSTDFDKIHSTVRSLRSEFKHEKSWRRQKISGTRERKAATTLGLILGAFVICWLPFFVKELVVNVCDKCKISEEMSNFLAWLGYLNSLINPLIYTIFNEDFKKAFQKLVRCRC

5-HT1B receptor [2] = target: T3, 5-HT1B receptor (Homo sapiens, UniProt P28222); assay: biochemical; type: CHO-K1 membranes; set-up: GTPγS agonist functional assay
T3 construct: gene HTR1B; full-length human recombinant receptor in CHO-K1 cells (Ogeda); crude membranes
From the text: (§2) Additionally, the reference values obtained were compared to historical values obtained from the same receptor and used to validate the experimental session. […] For the new assays developed in this study (i.e., 5‐ht1E receptor), the two independent pIC50 determined must be concordant with a 1 log unit interval for the assays to be validated.

5-HT1A receptor = target: T4, 5-HT1A receptor (Homo sapiens, UniProt P08908); assay: radioligand competition, CHO-K1 membranes; type: binding; conditions: read-out: 5-HT1A / pKi (converted)
T4 construct: gene HTR1A; full-length human recombinant receptor in CHO-K1 cells (Ogeda); crude membranes
T4 sequence (P08908 1-422): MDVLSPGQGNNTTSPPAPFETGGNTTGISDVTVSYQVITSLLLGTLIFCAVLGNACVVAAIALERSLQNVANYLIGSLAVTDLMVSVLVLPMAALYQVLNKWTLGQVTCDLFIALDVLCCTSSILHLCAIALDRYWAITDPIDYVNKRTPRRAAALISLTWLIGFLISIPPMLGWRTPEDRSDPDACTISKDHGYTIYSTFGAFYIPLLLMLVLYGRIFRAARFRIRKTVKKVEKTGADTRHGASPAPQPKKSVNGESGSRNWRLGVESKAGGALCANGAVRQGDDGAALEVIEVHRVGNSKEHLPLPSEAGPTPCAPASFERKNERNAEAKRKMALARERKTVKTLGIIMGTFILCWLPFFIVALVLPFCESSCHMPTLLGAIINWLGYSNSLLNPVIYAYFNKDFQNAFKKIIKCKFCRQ
From the text: radioligand competition, CHO-K1 membranes on 5-HT1A receptor

5-HT2B receptor [3] = target: T5, 5-HT2B receptor (Homo sapiens, UniProt P41595); assay: cell-based; set-up: species or system CHO-K1; IPOne HTRF agonist assay, IP1 accumulation in adherent transfected cells
T5 construct: gene HTR2B; full-length human recombinant receptor in CHO-K1 cells (Ogeda); crude membranes
Protocol: The assay was performed on adherent cells. For agonist testing, the medium was removed and 20 μl of assay buffer plus 20 μl of the studied agonist or the reference agonist were added in each well. The plate was incubated for 60 min at 37°C with 5% CO2. IP1‐D2 reagent and anti‐IP1 cryptate reagents were dispensed in the wells, and IP1 concentrations were then measured following the manufacturer instructions (IPOne HTRF assay kit; Cisbio International, Codolet, France). In brief, increasing concentrations of agonists were added to stably transfected cells in buffer in an Optiplate (PerkinElmer Life Sciences). The plates were incubated, and cells were then lysed by the addition of HTRF reagents (IP1‐D2 reagent and anti‐IP1 cryptate reagents) and diluted in lysis buffer, followed by incubation at room temperature. […] Additionally, the reference values obtained were compared to historical values obtained from the same receptor and used to validate the experimental session. […] For the new assays developed in this study (i.e., 5‐ht1E receptor), the two independent pIC50 determined must be concordant with a 1 log unit interval for the assays to be validated.

5-HT2B receptor [4] = target: T5, 5-HT2B receptor; assay: radioligand competition, CHO-K1 membranes; type: binding; conditions: for Ki: read-out: 5-HT2B / pKi (converted)
From the text: radioligand competition, CHO-K1 membranes on 5-HT2B receptor

5-HT1F receptor [5] = target: T2, 5-HT1F receptor; assay: radioligand competition, CHO-K1 membranes; type: binding; conditions: read-out: 5-HT1F / pKi (converted)
5-HT1B receptor [6] = target: T3, 5-HT1B receptor; assay: cell-based; set-up: species or system CHO-K1; cAMP HTRF agonist assay, Gi coupled receptors, inhibition of stimulated cAMP
Protocol: as §1

5-HT2A receptor = target: T6, 5-HT2A receptor (Homo sapiens, UniProt P28223); assay: radioligand competition, CHO-K1 membranes; type: binding; conditions: read-out: 5-HT2A / pKi (converted)
T6 construct: gene HTR2A; full-length human recombinant receptor in CHO-K1 cells (Ogeda); crude membranes
From the text: radioligand competition, CHO-K1 membranes on 5-HT2A receptor

5-HT1D receptor = target: T7, 5-HT1D receptor (Homo sapiens, UniProt P28221); assay: biochemical; type: CHO-K1 membranes; set-up: GTPγS agonist functional assay
T7 construct: gene HTR1D; full-length human recombinant receptor in CHO-K1 cells (Ogeda); crude membranes
From the text: as §2

[7] = read-out: 5-HT1F / cAMP (converted)
[8] = GTPγS, read-out: 5‐HT1B / GTPγS (converted)
[9] = IP, read-out: 5‐HT2B / IP (converted)
[10] = cAMP, read-out: 5‐HT1B / cAMP (converted)
[11] = GTPγS, read-out: 5‐HT1D / GTPγS (converted)

T7 sequence (P28221 whole entry): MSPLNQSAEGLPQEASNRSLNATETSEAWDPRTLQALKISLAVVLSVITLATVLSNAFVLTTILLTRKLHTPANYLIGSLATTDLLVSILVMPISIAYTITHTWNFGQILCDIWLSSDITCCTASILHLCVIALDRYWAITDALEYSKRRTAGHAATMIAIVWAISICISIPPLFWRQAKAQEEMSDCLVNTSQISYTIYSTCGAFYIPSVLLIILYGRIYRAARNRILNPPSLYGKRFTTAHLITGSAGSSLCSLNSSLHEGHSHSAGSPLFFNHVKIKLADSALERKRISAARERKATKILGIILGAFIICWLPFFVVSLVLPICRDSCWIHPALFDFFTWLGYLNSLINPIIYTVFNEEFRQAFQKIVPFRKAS
T1 sequence (P28566 whole entry): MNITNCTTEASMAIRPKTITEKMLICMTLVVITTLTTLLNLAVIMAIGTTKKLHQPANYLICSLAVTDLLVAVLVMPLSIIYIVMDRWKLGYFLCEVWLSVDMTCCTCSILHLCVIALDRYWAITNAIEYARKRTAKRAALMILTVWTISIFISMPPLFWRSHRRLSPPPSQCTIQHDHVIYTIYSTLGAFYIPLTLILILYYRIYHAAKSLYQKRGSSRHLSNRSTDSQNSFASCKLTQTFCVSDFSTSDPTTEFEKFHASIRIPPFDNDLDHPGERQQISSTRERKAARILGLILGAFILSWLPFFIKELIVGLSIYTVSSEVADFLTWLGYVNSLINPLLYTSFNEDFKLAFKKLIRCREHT
T5 sequence (P41595 whole entry): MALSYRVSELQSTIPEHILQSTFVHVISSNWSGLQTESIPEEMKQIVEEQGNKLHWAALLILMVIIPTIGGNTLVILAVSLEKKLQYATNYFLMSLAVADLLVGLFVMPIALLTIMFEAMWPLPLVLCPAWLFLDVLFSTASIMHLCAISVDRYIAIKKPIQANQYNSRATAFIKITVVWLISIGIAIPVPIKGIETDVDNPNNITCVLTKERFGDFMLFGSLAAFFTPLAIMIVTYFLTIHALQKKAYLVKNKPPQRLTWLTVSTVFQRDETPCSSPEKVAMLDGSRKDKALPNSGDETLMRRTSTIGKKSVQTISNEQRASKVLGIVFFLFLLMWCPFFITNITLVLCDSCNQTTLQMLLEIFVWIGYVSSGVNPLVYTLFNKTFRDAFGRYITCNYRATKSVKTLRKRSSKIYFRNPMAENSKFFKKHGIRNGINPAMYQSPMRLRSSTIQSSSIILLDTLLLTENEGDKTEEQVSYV
T3 sequence (P28222 whole entry): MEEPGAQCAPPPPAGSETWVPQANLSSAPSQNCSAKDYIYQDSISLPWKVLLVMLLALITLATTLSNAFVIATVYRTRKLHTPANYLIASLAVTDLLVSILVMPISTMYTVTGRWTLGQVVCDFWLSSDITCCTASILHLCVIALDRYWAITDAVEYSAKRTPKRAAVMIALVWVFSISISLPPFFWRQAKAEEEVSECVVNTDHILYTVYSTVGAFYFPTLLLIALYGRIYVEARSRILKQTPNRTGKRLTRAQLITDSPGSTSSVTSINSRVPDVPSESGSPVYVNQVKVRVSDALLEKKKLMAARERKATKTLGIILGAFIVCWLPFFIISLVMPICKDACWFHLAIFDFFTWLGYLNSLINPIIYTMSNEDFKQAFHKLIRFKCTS
T6 sequence (P28223 whole entry): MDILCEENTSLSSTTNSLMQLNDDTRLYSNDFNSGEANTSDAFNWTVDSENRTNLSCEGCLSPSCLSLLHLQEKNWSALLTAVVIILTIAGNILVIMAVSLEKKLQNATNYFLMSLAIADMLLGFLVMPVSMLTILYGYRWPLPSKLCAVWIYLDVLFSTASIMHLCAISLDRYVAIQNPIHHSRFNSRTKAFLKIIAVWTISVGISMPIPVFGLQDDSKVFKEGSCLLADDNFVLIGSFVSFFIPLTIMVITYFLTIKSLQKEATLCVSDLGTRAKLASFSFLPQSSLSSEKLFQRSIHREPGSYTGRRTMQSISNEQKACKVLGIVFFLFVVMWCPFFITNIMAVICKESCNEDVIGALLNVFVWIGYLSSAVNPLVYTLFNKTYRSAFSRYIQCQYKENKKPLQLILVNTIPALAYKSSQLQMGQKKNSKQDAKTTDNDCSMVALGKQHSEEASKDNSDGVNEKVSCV

| SMILES | EC50 (5-ht1E receptor) | EC50 (5-HT1F receptor [1]; [7]) | EC50 (5-HT1B receptor [2]; [8]) | Ki (5-HT1A receptor) | EC50 (5-HT2B receptor [3]; [9]) | 5-HT2B / pKi (5-HT2B receptor [4]; radioligand listed in supplement Table S1, unreliable (pIC50 printed as <[…])) | Ki (5-HT1F receptor [5]) | EC50 (5-HT1B receptor [6]; [10]) | Ki (5-HT2A receptor) | EC50 (5-HT1D receptor; [11]) | Ki (5-HT2B receptor [4]) | EC50 (5-HT1F receptor [1]; read-out: 5-HT1A / cAMP) | EC50 (5-HT1D receptor) | EC50 (5-HT1B receptor [2]) | EC50 (5-HT2B receptor [3]) | EC50 (5-HT1B receptor [6]) |
| --- | --- | --- | --- | --- | --- | --- | --- | --- | --- | --- | --- | --- | --- | --- | --- | --- |
| CNC1CCc2[nH]c3ccc(C(N)=O)cc3c2C1 (racemic) [Frovatriptan racemate] | 9120 nM | – | – | – | – | – | – | – | – | – | – | – | – | – | – | – |
| CNS(=O)(=O)CCc1ccc2[nH]cc(C3CCN(C)CC3)c2c1 [Naratriptan hydrochloride] | 17.8 nM | 4.17 nM | 1.38 nM | 15.1 nM | > 10000 nM | 5.08 -log M | 1.78 nM | 8.91 nM | – | – | – | – | – | – | – | – |
| CN1CCC[C@@H]1Cc1c[nH]c2ccc(CCS(=O)(=O)c3ccccc3)cc12 [Eletriptan hydrobromide] | 29.5 nM | 7.41 nM | 8.13 nM | 1.95 nM | 155 nM | – | 17 nM | 10 nM | 1150 nM | 0.912 nM | 447 nM | – | – | – | – | – |
| CNS(=O)(=O)Cc1ccc2[nH]cc(CCCN3CCN(c4ncncc4OC)CC3)c2c1 [Avitriptan fumarate] | 3020 nM | 81.3 nM | 2.09 nM | 19.5 nM | 389 nM | – | 77.6 nM | 2.69 nM | 2340 nM | 0.537 nM | 1150 nM | – | – | – | – | – |
| N#Cc1ccc(N2CCN(C(=O)COc3ccc4[nH]cc(CCN)c4c3)CC2)cc1 [Donitriptan hydrochloride] | > 10000 nM | – | – | 11.7 nM | – | – | – | – | 447 nM | – | 813 nM | > 10000 nM | 0.309 nM | 0.302 nM | 24.5 nM | 0.11 nM |
| CN(C)[C@@H]1CCc2[nH]c3ccc(NC(=O)c4ccc(F)cc4)cc3c2C1 [LY344864 hydrochloride] | – | – | – | – | > 10000 nM | – | – | – | – | 117 nM | – | – | – | – | – | – |
